Where “and” joins values, the source holds several entries; their conditions need not be identical. Identical values can stand only once.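 Exposure lasted 48 hours, with cells grown in 96-well plates and compounds tested at five concentrations. Abbreviation: GI50, concentration required for 50% inhibition of growth. TGI: total growth inhibition.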

Some test systems named below: SK-MEL-5 melanoma; HOP-92 NSCLC; COLO 205 colon; OVCAR-8 ovarian; UACC-257 melanoma; HS 578T breast; PC-3 prostate; NCI-H460 lung; HL-60(TB) leukemia; HCC-2998 colon.
Assay in all cases: NCI tumour cell line growth inhibition, 48 h

For `CC1=C(C(=O)Nc2ccc(F)c(Cl)c2)C(c2ccccc2Cl)NC(=S)N1` (stereo not drawn), the GI50 in the assay with SK-MEL-5 melanoma is 12.4 µM; in the assay on HOP-92 NSCLC, > 50 µM; in the assay with COLO 205 colon it was 23.9 µM; in the assay on OVCAR-8 ovarian, 42.7 µM; in the assay with UACC-257 melanoma it was 19.7 µM; in the assay with HS 578T breast, > 50 µM. Moreover, the GI50 in the assay with PC-3 prostate is 20.2 µM; with NCI-H460 lung, 23.7 µM; in the assay on HL-60(TB) leukemia, 25.6 µM. The TGI with SK-MEL-5 melanoma was > 50 µM; in the assay with HOP-92 NSCLC, > 50 µM; in the assay on COLO 205 colon, > 50 µM; in the assay on OVCAR-8 ovarian, > 50 µM; in the assay on UACC-257 melanoma it was 49.7 µM; in the assay on HS 578T breast, > 50 µM. In addition, the TGI with PC-3 prostate, in the assay with NCI-H460 lung and with HL-60(TB) leukemia was > 50 µM throughout.
For the compound `C=C1C(=O)O[C@H]2[C@H]1CC/C(COC(=O)CCCCC(=O)OC/C1=C/CC[C@@]3(C)O[C@H]3[C@H]3OC(=O)C(=C)[C@@H]3CC1)=C\CC[C@@]1(C)O[C@@H]21`, the GI50 is 2.6 µM in the assay on SK-MEL-5 melanoma; 1.64 µM with HOP-92 NSCLC; 1.29 µM with COLO 205 colon; 2.76 µM with OVCAR-8 ovarian; 1.82 µM in the assay on UACC-257 melanoma; 1.97 µM in the assay on HS 578T breast. Also, the GI50 was 2.43 µM with PC-3 prostate, 3.52 µM with NCI-H460 lung, 0.722 µM in the assay on HL-60(TB) leukemia and 2.09 µM with HCC-2998 colon. The TGI was 7.73 µM in the assay on SK-MEL-5 melanoma; 4.56 µM with HOP-92 NSCLC; 3.31 µM with COLO 205 colon; 11 µM in the assay with OVCAR-8 ovarian; 4.4 µM in the assay on UACC-257 melanoma; 8.46 µM with HS 578T breast. The TGI turned out to be 7.46 µM in the assay with PC-3 prostate, 25.5 µM with NCI-H460 lung, 3.94 µM in the assay on HL-60(TB) leukemia and 3.94 µM in the assay with HCC-2998 colon.
With `Cc1cc(N2CCCCC2)nc(N(CCCNc2ccnc3cc(Cl)ccc23)Cc2ccco2)n1`, the GI50 with SK-MEL-5 melanoma is 1.67 µM; in the assay with HOP-92 NSCLC it was 1.38 µM; with COLO 205 colon, 1.67 µM; in the assay with OVCAR-8 ovarian it was 2.24 µM; in the assay with UACC-257 melanoma, 2.35 µM; with HS 578T breast it was 3.02 µM. Moreover, the GI50 is 1.98 µM in the assay with PC-3 prostate, 1.8 µM with NCI-H460 lung, 1.94 µM with HL-60(TB) leukemia and 1.97 µM with HCC-2998 colon. Further, the TGI in the assay with SK-MEL-5 melanoma is 3.06 µM; with HOP-92 NSCLC, 3.95 µM; in the assay with COLO 205 colon, 3.53 µM; with OVCAR-8 ovarian it was 5.18 µM; in the assay with UACC-257 melanoma, 5.21 µM; with HS 578T breast it was 11.4 µM. Further, the TGI with PC-3 prostate amounted to 5.61 µM; in the assay on NCI-H460 lung it was 4.23 µM; in the assay on HL-60(TB) leukemia, 4.51 µM; in the assay on HCC-2998 colon, 4.39 µM.
With `O=[N+]([O-])c1ccc(Br)c([N+](=O)[O-])c1`, the GI50 in the assay with SK-MEL-5 melanoma is 2.3 µM; in the assay with HOP-92 NSCLC it was 1.94 µM; with COLO 205 colon, 1.72 µM; in the assay with OVCAR-8 ovarian, 2.49 µM; in the assay with UACC-257 melanoma, 1.86 µM; in the assay on HS 578T breast, 1.98 µM. Besides, the GI50 with PC-3 prostate is 1.94 µM; in the assay with NCI-H460 lung, 2.56 µM; with HL-60(TB) leukemia it was 1.41 µM; with HCC-2998 colon, 4.73 µM. For the same compound, the TGI in the assay on SK-MEL-5 melanoma stood at 5.64 µM; in the assay with HOP-92 NSCLC, 4.02 µM; in the assay on COLO 205 colon it was 3.32 µM; in the assay with OVCAR-8 ovarian, 6.05 µM; in the assay on UACC-257 melanoma it was 3.37 µM; in the assay on HS 578T breast, 4.97 µM. In addition, the TGI came out at 3.93 µM in the assay with PC-3 prostate, 8.72 µM in the assay with NCI-H460 lung, 3.54 µM in the assay with HL-60(TB) leukemia and 16.7 µM in the assay on HCC-2998 colon.
As to `O=c1cc(-c2cccc(C(F)(F)F)c2)[nH]c2cc3c(cc12)OCO3`, the GI50 was 1.27 µM with SK-MEL-5 melanoma; 5.1 µM with COLO 205 colon; 0.482 µM with OVCAR-8 ovarian; 0.353 µM with NCI-H460 lung; 0.493 µM with HCC-2998 colon. The TGI in the assay on SK-MEL-5 melanoma is 4.41 µM; with HOP-92 NSCLC, 50 µM; in the assay on COLO 205 colon it was 24 µM and > 100 µM; in the assay with OVCAR-8 ovarian it was 21.5 µM and 18.5 µM; in the assay with HS 578T breast it was 17.5 µM; with PC-3 prostate it was > 100 µM. Besides, the TGI with NCI-H460 lung was 4.08 µM and 11 µM; in the assay with HL-60(TB) leukemia it was 0.705 µM.
Take `COc1cc(O)c2c(O)c3c(c4c2c1[C@]1(C4)C(C)=CCCC1(C)C)[C@H](O)[C@@]1(O)CC(=O)C(C(N)=O)=C(O)[C@@]1(O)C3=O`: the TGI with SK-MEL-5 melanoma was found to be 0.399 µM; with HOP-92 NSCLC, 1.6 µM; in the assay on COLO 205 colon, 0.24 µM; in the assay on OVCAR-8 ovarian, 1.73 µM; in the assay with UACC-257 melanoma it was 0.931 µM; in the assay on HS 578T breast, 2.25 µM. For the same compound, the TGI in the assay on PC-3 prostate came out at 0.834 µM; in the assay on NCI-H460 lung, 0.664 µM; with HL-60(TB) leukemia it was 0.485 µM.
`CC1=NN(c2ccccc2)C(=O)C1N=Nc1ccc([As](=O)(O)O)c(O)c1` (stereo not drawn): the TGI with SK-MEL-5 melanoma, in the assay with HOP-92 NSCLC, in the assay with COLO 205 colon, with OVCAR-8 ovarian, in the assay with UACC-257 melanoma and in the assay with HS 578T breast was > 100 µM each time. Moreover, the TGI in the assay with PC-3 prostate, in the assay with NCI-H460 lung and with HL-60(TB) leukemia was > 100 µM throughout.
On to `CC1=CC(=NC(=O)CBr)C=C/C1=N\S(=O)(=O)c1ccccc1`, for which the GI50 was 1.79 µM in the assay with SK-MEL-5 melanoma; 1.8 µM in the assay on HOP-92 NSCLC; 5.96 µM with COLO 205 colon; 3.29 µM with OVCAR-8 ovarian; 5.03 µM with HS 578T breast; 3.17 µM in the assay with PC-3 prostate. Besides, the figures for the GI50 in the assay on NCI-H460 lung, in the assay on HL-60(TB) leukemia and in the assay with HCC-2998 colon were 15.1 µM, 2.78 µM and 16.5 µM, respectively. The TGI in the assay with SK-MEL-5 melanoma was found to be 3.98 µM; in the assay with HOP-92 NSCLC, 6.77 µM; in the assay on COLO 205 colon, 21.2 µM; in the assay with OVCAR-8 ovarian, 11.1 µM; in the assay on HS 578T breast it was 35.2 µM; in the assay with PC-3 prostate it was 13.2 µM. For the same compound, the TGI came to 34 µM in the assay on NCI-H460 lung, 7.94 µM in the assay on HL-60(TB) leukemia and 31.3 µM in the assay with HCC-2998 colon.
As to `COc1ccc2c(c1)c(-c1ccc(-c3cn(S(=O)(=O)c4ccccc4)c4ccc(OC)cc34)s1)cn2S(=O)(=O)c1ccccc1`, the GI50 with SK-MEL-5 melanoma, in the assay on HOP-92 NSCLC, in the assay on COLO 205 colon, in the assay on HS 578T breast, in the assay on PC-3 prostate and in the assay on NCI-H460 lung was > 100 µM throughout. For the same compound, the GI50 with HL-60(TB) leukemia and in the assay on HCC-2998 colon was > 100 µM each time. Moreover, the TGI in the assay with SK-MEL-5 melanoma, with HOP-92 NSCLC, with COLO 205 colon, in the assay on HS 578T breast, in the assay on PC-3 prostate and in the assay on NCI-H460 lung was > 100 µM each time. Further, the TGI with HL-60(TB) leukemia and in the assay on HCC-2998 colon was > 100 µM each time.

(Values after PubChem BioAssay (NCI).)
